Experimental data: PubChem BioAssay (NCI)
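Protocol summary: plate cells (96-well), add compound at 5 concentrations, incubate 48 h, interpolate endpoints linearly. TGI marks complete inhibition of growth.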

Experiments:
Assay in all cases: NCI tumour cell line growth inhibition, 48 h
786-0 renal = system: 786-0 renal
MDA-MB-435 = system: MDA-MB-435
HOP-62 NSCLC = system: HOP-62 NSCLC
NCI/ADR-RES ovarian = system: NCI/ADR-RES ovarian
SR leukemia = system: SR leukemia
SK-MEL-5 melanoma = system: SK-MEL-5 melanoma
SF-268 CNS = system: SF-268 CNS
NCI-H522 lung = system: NCI-H522 lung
COLO 205 colon = system: COLO 205 colon
HOP-92 NSCLC = system: HOP-92 NSCLC

Compound	TGI (786-0 renal) [µM]	TGI (MDA-MB-435) [µM]	TGI (HOP-62 NSCLC) [µM]	TGI (NCI/ADR-RES ovarian) [µM]	TGI (SR leukemia) [µM]	TGI (SK-MEL-5 melanoma) [µM]	TGI (SF-268 CNS) [µM]	TGI (NCI-H522 lung) [µM]	TGI (COLO 205 colon) [µM]	TGI (HOP-92 NSCLC) [µM]
COc1ccc2c(c1)C(=O)C1CCC(=O)N1C2c1ccc2c(c1)OCO2 (stereo not drawn)	78.2	24.4	42.8	> 100	> 100	24.9	53.3	21.6	25.7	
O=c1c(O)cccn1C1OC(CO)C(O)C1O (stereo not drawn)	> 100						> 100	> 100	> 100	> 100
COc1ccc(NC(=O)CC(=O)N2N=C(N(c3ccccc3)c3ccccc3)CC2c2ccccc2)cc1 (stereo not drawn)	> 100	> 100	> 100	> 100			> 100	> 100	> 100	> 100
COc1cccc(C23CCCC(C2)N(C)CC3OC(=O)c2ccccc2)c1OC (stereo not drawn)	> 100	38.4	> 100	67.1	40.9	27.4	> 100	67.6	29	
CC(C)(Cc1ccccc1)N1C(=O)N1C(C)(C)Cc1ccccc1	56.4	> 100		> 100	> 100	43.4	> 100	60.6	77.8	
N#C/C(=C1/c2cc([N+](=O)[O-])ccc2-c2c1cc([N+](=O)[O-])cc2[N+](=O)[O-])N1CCCCC1	> 100	> 100	> 100	> 100	4.44	> 100	> 100	> 100	> 100	
CC(=O)O[C@H]1CCC2[C@@H]3CCC4NC(=O)C(C#N)C[C@]4(C)C3CC[C@@]21C (stereo partly drawn)	> 10	> 10	> 10	> 10	> 10	> 10	> 10		> 10	> 10
COC(=O)c1cc(C)ccc1C1CN=NC12Cc1c(C)cc(C)cc1C2=O (stereo not drawn)	> 100	> 100	> 100	46.8		31.6	98.9	34.5	31.4	40.9
CC(C)(C)C(=O)N1CCN(C=O)C1=S	> 100	> 100	> 100	> 100			> 100	> 100	> 100	52.9
CCN1CCCn2c(=O)[nH]c3cc(Br)cc1c32	> 100	> 100	> 100	> 100	> 100	> 100	> 100		> 100	
COc1cc2oc(-c3ccc4c(c3)OCO4)c(OC)c(=O)c2c(O)c1OC	> 50	> 50	> 50	> 50		> 50	> 50	> 50	> 50	> 50
COC(=O)[C@@]1(C)CCC[C@]2(C(=O)O)C3Cc4occc4[C@H](C)[C@@H]3CCC21 (stereo partly drawn)	> 100	> 100	> 100	82	> 100	> 100	> 100			81
CC1CN=C(c2ccc(CN3CCC(C4CCN(Cc5ccc(C6=NCC(C)N6)cc5)CC4)CC3)cc2)N1 (stereo not drawn)	34.1	51.6	30.9	> 100		> 100	53.7	33.7	41.3	> 100
CCOC(=O)c1c(N)sc2c1C(C(=O)OCC)CCC2 (stereo not drawn)	> 100		> 100		> 100	> 100			> 100	> 100
COc1cc(CNC(=S)CCCCCCCCCCC(C)C)ccc1O	> 100	> 100	> 100	> 100	> 100	> 100	> 100		> 100	68
COc1ccccc1NC(=S)N/N=C/c1ccccn1	13	> 46.4	25.6	0.237		2.71	3.59	10.9	> 16	29
O=C(NCCCCCCO)c1cccc2cc3ccccc3nc12	36.2	47.3	32.9	> 100		32.9		28.8	25.3	> 100
COc1cc2oc(=O)cc(C)c2c(OC)c1OC(C)=O	> 100	> 100	> 100	> 100	> 100	> 100	> 100		> 100	
